What was measured:
Experiment in all cases: relative viability (nuclei count vs DMSO), 5 days (fraction); higher = more cells survive
JZL-184 = compound: C1CN(CCC1C(C2=CC3=C(C=C2)OCO3)(C4=CC5=C(C=C4)OCO5)O)C(=O)OC6=CC=C(C=C6)[N+](=O)[O-] [JZL-184]
Procedure, shortened: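 Acceptance criteria were a control CV below 25% and at least one doubling per plate. Lung cancer cell lines in 1536-well plates got five library-drug doses (not always all listed) √10 apart by pinning and were left 5 days with no medium change. Viability divides treated-well nuclei by vehicle-well nuclei and is the median across plates. Nuclei were counted by MetaXpress from 4× Hoechst images.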

JZL-184 + Alpelisib = compound: C1CN(CCC1C(C2=CC3=C(C=C2)OCO3)(C4=CC5=C(C=C4)OCO5)O)C(=O)OC6=CC=C(C=C6)[N+](=O)[O-] [JZL-184] + Cc1nc(NC(=O)N2CCC[C@H]2C(N)=O)sc1-c1ccnc(C(C)(C)C(F)(F)F)c1 [Alpelisib] (partner 2 µM)
Procedure, shortened: (§1)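 Dosing by pin tool came one day after lung cancer cell lines were seeded in 1536-well plates, using either one drug or a fixed anchor-drug dose plus five library-drug doses (not always all listed) in √10 steps. After 5 days, nuclei were counted on 4× images. Relative viability is treated-well nuclei count divided by vehicle-well nuclei count, and values are medians of duplicate plates.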

JZL-184 + Vorinostat = compound: C1CN(CCC1C(C2=CC3=C(C=C2)OCO3)(C4=CC5=C(C=C4)OCO5)O)C(=O)OC6=CC=C(C=C6)[N+](=O)[O-] [JZL-184] + O=C(CCCCCCC(=O)Nc1ccccc1)NO [Vorinostat] (partner 1 µM)
Procedure, shortened: as §1

JZL-184 + Olaparib = compound: C1CN(CCC1C(C2=CC3=C(C=C2)OCO3)(C4=CC5=C(C=C4)OCO5)O)C(=O)OC6=CC=C(C=C6)[N+](=O)[O-] [JZL-184] + O=C(c1cc(Cc2n[nH]c(=O)c3ccccc23)ccc1F)N1CCN(C(=O)C2CC2)CC1 [Olaparib] (partner 8 µM)
Procedure, shortened: as §1

JZL-184 + Lapatinib = compound: C1CN(CCC1C(C2=CC3=C(C=C2)OCO3)(C4=CC5=C(C=C4)OCO5)O)C(=O)OC6=CC=C(C=C6)[N+](=O)[O-] [JZL-184] + CS(=O)(=O)CCNCc1ccc(-c2ccc3ncnc(Nc4ccc(OCc5cccc(F)c5)c(Cl)c4)c3c2)o1 [Lapatinib] (partner 2 µM)
Procedure, shortened: as §1

JZL-184 + Pictilisib = compound: C1CN(CCC1C(C2=CC3=C(C=C2)OCO3)(C4=CC5=C(C=C4)OCO5)O)C(=O)OC6=CC=C(C=C6)[N+](=O)[O-] [JZL-184] + CS(=O)(=O)N1CCN(Cc2cc3nc(-c4cccc5[nH]ncc45)nc(N4CCOCC4)c3s2)CC1 [Pictilisib] (partner 1 µM)
Procedure, shortened: as §1

JZL-184 + Linsitinib = compound: C1CN(CCC1C(C2=CC3=C(C=C2)OCO3)(C4=CC5=C(C=C4)OCO5)O)C(=O)OC6=CC=C(C=C6)[N+](=O)[O-] [JZL-184] + C[C@]1(O)C[C@@H](c2nc(-c3ccc4ccc(-c5ccccc5)nc4c3)c3c(N)nccn32)C1 [Linsitinib] (partner 1 µM)
Procedure, shortened: as §1

JZL-184 + Foretinib = compound: C1CN(CCC1C(C2=CC3=C(C=C2)OCO3)(C4=CC5=C(C=C4)OCO5)O)C(=O)OC6=CC=C(C=C6)[N+](=O)[O-] [JZL-184] + COc1cc2c(Oc3ccc(NC(=O)C4(C(=O)Nc5ccc(F)cc5)CC4)cc3F)ccnc2cc1OCCCN1CCOCC1 [Foretinib] (partner 0.25 µM)
Procedure, shortened: as §1

JZL-184 + Crizotinib = compound: C1CN(CCC1C(C2=CC3=C(C=C2)OCO3)(C4=CC5=C(C=C4)OCO5)O)C(=O)OC6=CC=C(C=C6)[N+](=O)[O-] [JZL-184] + C[C@@H](Oc1cc(-c2cnn(C3CCNCC3)c2)cnc1N)c1c(Cl)ccc(F)c1Cl [Crizotinib] (partner 1 µM)
Procedure, shortened: as §1

JZL-184 + Navitoclax = compound: C1CN(CCC1C(C2=CC3=C(C=C2)OCO3)(C4=CC5=C(C=C4)OCO5)O)C(=O)OC6=CC=C(C=C6)[N+](=O)[O-] [JZL-184] + CC1(C)CCC(c2ccc(Cl)cc2)=C(CN2CCN(c3ccc(C(=O)NS(=O)(=O)c4ccc(N[C@H](CCN5CCOCC5)CSc5ccccc5)c(S(=O)(=O)C(F)(F)F)c4)cc3)CC2)C1 [Navitoclax] (partner 0.5 µM)
Procedure, shortened: as §1

JZL-184 + Bortezomib = compound: C1CN(CCC1C(C2=CC3=C(C=C2)OCO3)(C4=CC5=C(C=C4)OCO5)O)C(=O)OC6=CC=C(C=C6)[N+](=O)[O-] [JZL-184] + CC(C)C[C@H](NC(=O)[C@H](Cc1ccccc1)NC(=O)c1cnccn1)B(O)O [Bortezomib] (partner 0.002 µM)
Procedure, shortened: as §1

With IA-LM the relative viability (JZL-184; 0.04 µM) was 1.31, the relative viability (JZL-184; 0.4 µM) was 0.879 and the relative viability (JZL-184; 1.265 µM) was 1.03. It also gave a relative viability (JZL-184; 4 µM) of 1, a relative viability (JZL-184 + Alpelisib; first compound 0.04 µM) of 0.991 and a relative viability (JZL-184 + Alpelisib; first compound 0.4 µM) of 0.526. It also gave a relative viability (JZL-184 + Alpelisib; first compound 1.265 µM) of 0.886, a relative viability (JZL-184 + Alpelisib; first compound 4 µM) of 0.744 and a relative viability (JZL-184 + Vorinostat; first compound 0.04 µM) of 0.893. For the same cell line, the relative viability (JZL-184 + Vorinostat; first compound 0.4 µM) was 0.988, the relative viability (JZL-184 + Vorinostat; first compound 1.265 µM) was 0.965 and the relative viability (JZL-184 + Vorinostat; first compound 4 µM) was 0.989. The relative viability (JZL-184 + Olaparib; first compound 0.04 µM) was 0.987, the relative viability (JZL-184 + Olaparib; first compound 0.4 µM) was 0.737 and the relative viability (JZL-184 + Olaparib; first compound 1.265 µM) was 0.827. It also gave a relative viability (JZL-184 + Olaparib; first compound 4 µM) of 0.82, a relative viability (JZL-184 + Lapatinib; first compound 0.04 µM) of 1.09 and a relative viability (JZL-184 + Lapatinib; first compound 0.4 µM) of 0.555. It also gave a relative viability (JZL-184 + Lapatinib; first compound 1.265 µM) of 0.759, a relative viability (JZL-184 + Lapatinib; first compound 4 µM) of 0.629 and a relative viability (JZL-184 + Pictilisib; first compound 0.04 µM) of 0.456. For the same cell line, the relative viability (JZL-184 + Pictilisib; first compound 0.4 µM) was 0.361, the relative viability (JZL-184 + Pictilisib; first compound 1.265 µM) was 0.376 and the relative viability (JZL-184 + Pictilisib; first compound 4 µM) was 0.312. It also gave a relative viability (JZL-184 + Linsitinib; first compound 0.04 µM) of 1.06, a relative viability (JZL-184 + Linsitinib; first compound 0.4 µM) of 0.529 and a relative viability (JZL-184 + Linsitinib; first compound 1.265 µM) of 0.607. The relative viability (JZL-184 + Linsitinib; first compound 4 µM) was 0.554, the relative viability (JZL-184 + Foretinib; first compound 0.04 µM) was 1.47 and the relative viability (JZL-184 + Foretinib; first compound 0.4 µM) was 1.08. For the same cell line, the relative viability (JZL-184 + Foretinib; first compound 1.265 µM) was 1.22, the relative viability (JZL-184 + Foretinib; first compound 4 µM) was 1.11 and the relative viability (JZL-184 + Crizotinib; first compound 0.04 µM) was 0.988. The relative viability (JZL-184 + Crizotinib; first compound 0.4 µM) was 0.467, the relative viability (JZL-184 + Crizotinib; first compound 1.265 µM) was 0.74 and the relative viability (JZL-184 + Crizotinib; first compound 4 µM) was 0.9. The relative viability (JZL-184 + Navitoclax; first compound 0.04 µM) was 0.983, the relative viability (JZL-184 + Navitoclax; first compound 0.4 µM) was 0.711 and the relative viability (JZL-184 + Navitoclax; first compound 1.265 µM) was 0.78. For the same cell line, the relative viability (JZL-184 + Navitoclax; first compound 4 µM) was 0.794, the relative viability (JZL-184 + Bortezomib; first compound 0.04 µM) was 1.04 and the relative viability (JZL-184 + Bortezomib; first compound 0.4 µM) was 0.786. For the same cell line, the relative viability (JZL-184 + Bortezomib; first compound 1.265 µM) was 0.844 and the relative viability (JZL-184 + Bortezomib; first compound 4 µM) was 0.866.
